System: hepatocytes
Test: Seq-Well scRNA-Seq of hepatocytes after APAP overdose (signature scores, DEG vs untreated)
Format: in vivo, mouse

## CC(=O)Nc1ccc(O)cc1 [APAP, acetaminophen]
APAP vs. UT
  mt-Co2 pct.1: 0.157
  mt-Co3 avg_logFC: −0.9584
  mt-Co3 pct.1: 0.198
  mt-Cytb avg_logFC: −0.8775
  mt-Cytb pct.1: 0.971
  mt-Nd1 avg_logFC: −0.76
  mt-Nd1 pct.1: 0.978
  mt-Nd2 avg_logFC: −0.8325
  mt-Nd2 pct.1: 0.978
  mt-Nd4 avg_logFC: −1.116
  mt-Nd4 pct.1: 0.942
  mt-Nd5 avg_logFC: −0.7797
  mt-Nd5 pct.1: 0.942
  mt-Rnr1 avg_logFC: −0.3538
  mt-Rnr1 pct.1: 1
  mt-Rnr2 avg_logFC: −0.5458
  mt-Rnr2 pct.1: 1
  n-R5-8s1 avg_logFC: 0.6965
  n-R5-8s1 pct.1: 0.268
Cluster A6 (APAP 6 hr)
  1700017B05Rik avg_logFC: 0.2894
  1700017B05Rik pct.1: 0.255
  2010003K11Rik avg_logFC: 0.4872
  2010003K11Rik pct.1: 0.396
  Abca1 avg_logFC: 0.5058
  Abca1 pct.1: 0.604
  Abhd2 avg_logFC: 0.3593
  Abhd2 pct.1: 0.37
  Agpat9 avg_logFC: 0.2968
  Agpat9 pct.1: 0.277
  Alb avg_logFC: 0.4181
  Alb pct.1: 1
  Apoa4 avg_logFC: 0.945
  Apoa4 pct.1: 0.721
  Apob avg_logFC: 0.3564
  Apob pct.1: 0.99
  Apobec1 avg_logFC: 0.2824
  Apobec1 pct.1: 0.239
  App avg_logFC: 0.3291
  App pct.1: 0.315
  Asl avg_logFC: 0.434
  Asl pct.1: 0.826
  B4galt5 avg_logFC: 0.402
  B4galt5 pct.1: 0.332
  Bach1 avg_logFC: 0.6724
  Bach1 pct.1: 0.461
  Bcl2l1 avg_logFC: 0.6863
  Bcl2l1 pct.1: 0.501
  Btg1 avg_logFC: 0.4265
  Btg1 pct.1: 0.356
  Btg2 avg_logFC: 0.5388
  Btg2 pct.1: 0.549
  C1qa avg_logFC: 0.471
  C1qa pct.1: 0.174
  C1qb avg_logFC: 0.5946
  C1qb pct.1: 0.234
  C1qc avg_logFC: 0.5477
  C1qc pct.1: 0.172
  C230081A13Rik avg_logFC: 0.4148
  C230081A13Rik pct.1: 0.279
  Ccl6 avg_logFC: 0.7552
  Ccl6 pct.1: 0.274
  Cd5l avg_logFC: 0.5663
  Cd5l pct.1: 0.21
  Cd14 avg_logFC: 0.3587
  Cd14 pct.1: 0.153
  Cd44 avg_logFC: 0.2929
  Cd44 pct.1: 0.115
  Cd53 avg_logFC: 0.2561
  Cd53 pct.1: 0.103
  Cd74 avg_logFC: 0.4419
  Cd74 pct.1: 0.155
  Cd97 avg_logFC: 0.3303
  Cd97 pct.1: 0.115
  Cd163 avg_logFC: 0.4066
  Cd163 pct.1: 0.146
  Cdkn1a avg_logFC: 1.099
  Cdkn1a pct.1: 0.702
  Cers6 avg_logFC: 0.4774
  Cers6 pct.1: 0.332
  Ces1d avg_logFC: 0.3854
  Ces1d pct.1: 0.859
  Cfp avg_logFC: 0.3251
  Cfp pct.1: 0.143
  Chic2 avg_logFC: 0.39
  Chic2 pct.1: 0.37
  Chka avg_logFC: 1.387
  Chka pct.1: 0.716
  Cidec avg_logFC: 0.3068
  Cidec pct.1: 0.253
  Clec4f avg_logFC: 0.9909
  Clec4f pct.1: 0.339
  Clec4d avg_logFC: 0.2622
  Clec4d pct.1: 0.107
  Cltc avg_logFC: 0.6346
  Cltc pct.1: 0.661
  Creb3l2 avg_logFC: 0.3363
  Creb3l2 pct.1: 0.329
  Ctsl avg_logFC: 0.4384
  Ctsl pct.1: 0.878
  Ctss avg_logFC: 0.7031
  Ctss pct.1: 0.212
  Cxadr avg_logFC: 0.6184
  Cxadr pct.1: 0.606
  Cyp4a14 avg_logFC: 0.5996
  Cyp4a14 pct.1: 0.776
  D10Wsu102e avg_logFC: 0.5134
  D10Wsu102e pct.1: 0.37
  Ddx3x avg_logFC: 0.4893
  Ddx3x pct.1: 0.692
  Ddx5 avg_logFC: 0.4732
  Ddx5 pct.1: 0.685
  Ddx21 avg_logFC: 0.6398
  Dgkd avg_logFC: 0.3462
  Dgkd pct.1: 0.282
  Dkc1 avg_logFC: 0.3232
  Dkc1 pct.1: 0.315
  Dot1l avg_logFC: 0.3695
  Dot1l pct.1: 0.282
  Dusp5 avg_logFC: 0.2889
  Dusp5 pct.1: 0.196
  Dusp6 avg_logFC: 0.4768
  Dusp6 pct.1: 0.482
  Dusp16 avg_logFC: 0.4153
  Dusp16 pct.1: 0.372
  Eaf1 avg_logFC: 0.5066
  Eaf1 pct.1: 0.427
  Efhd2 avg_logFC: 0.5545
  Efhd2 pct.1: 0.468
  Eif1a avg_logFC: 0.6585
  Eif1a pct.1: 0.599
  Eif4g2 avg_logFC: 0.3399
  Eif4g2 pct.1: 0.757
  Epas1 avg_logFC: 0.6264
  Epas1 pct.1: 0.604
  Etf1 pct.1: 0.606
  Etnppl avg_logFC: 0.4038
  Etnppl pct.1: 0.706
  Ets2 avg_logFC: 0.6277
  Ets2 pct.1: 0.415
  Fam107b avg_logFC: 0.4224
  Fam107b pct.1: 0.449
  Fam134b avg_logFC: 0.6202
  Fam134b pct.1: 0.678
  Fcgr3 avg_logFC: 0.294
  Fcgr3 pct.1: 0.107
  Fcna avg_logFC: 0.3469
  Fcna pct.1: 0.124
  Fxyd5 avg_logFC: 0.2697
  Fxyd5 pct.1: 0.138
  Gclc avg_logFC: 1.893
  Gclc pct.1: 0.962
  Gcnt2 avg_logFC: 0.4614
  Gcnt2 pct.1: 0.372
  Gm10800 avg_logFC: 0.5383
  Gm10800 pct.1: 0.115
  Gm15564 avg_logFC: 0.6079
  Gm15564 pct.1: 0.983
  Gm23388 avg_logFC: 0.4216
  Gm23388 pct.1: 0.222
  Gm24187 avg_logFC: 0.3969
  Gm24187 pct.1: 0.2
  Gm24245 avg_logFC: 0.5737
  Gm24245 pct.1: 0.422
  Gm26924 avg_logFC: 0.3029
  Gm26924 pct.1: 1
  Gnl3 avg_logFC: 0.477
  Gnl3 pct.1: 0.501
  Gpt2 avg_logFC: 0.3682
  Gpt2 pct.1: 0.764
  Gsta1 avg_logFC: 0.4204
  Gsta1 pct.1: 0.32
  Gtpbp4 avg_logFC: 0.4579
  Gtpbp4 pct.1: 0.477
  H2-Ab1 avg_logFC: 0.4491
  H2-Ab1 pct.1: 0.158
  H2-Eb1 avg_logFC: 0.3214
  H2-Eb1 pct.1: 0.105
  H3f3b avg_logFC: 0.5088
  H3f3b pct.1: 0.613
  Hba-a1 avg_logFC: 0.716
  Hba-a1 pct.1: 0.165
  Hba-a2 avg_logFC: 0.5328
  Hba-a2 pct.1: 0.131
  Heatr1 avg_logFC: 0.3433
  Heatr1 pct.1: 0.291
  Hic2 avg_logFC: 0.2673
  Hic2 pct.1: 0.15
  Hif1a avg_logFC: 0.4719
  Hif1a pct.1: 0.427
  Hilpda avg_logFC: 0.7698
  Hilpda pct.1: 0.403
  Hmox1 avg_logFC: 1.29
  Hmox1 pct.1: 0.558
  Hnf4a avg_logFC: 0.559
  Hnf4a pct.1: 0.835
  Hnrnpdl avg_logFC: 0.4137
  Hnrnpdl pct.1: 0.406
  Hsd17b13 avg_logFC: 0.5284
  Hsd17b13 pct.1: 0.864
  Ier5 avg_logFC: 0.2797
  Ier5 pct.1: 0.134
  Iigp1 avg_logFC: 0.6118
